Experimental data: patent publication US20020187938A1, “Ghrelin antagonists” (priority 2000, published 2002)
In brackets after ≈: the same amount, converted by molar mass. Several values for one entry are separate records, joined by “and”; a condition that tells them apart may be missing. Equal entries are not always repeated. Where a SMILES comes first, the peptide text is derived from it. Where no end group is shown, it is not given here. The star is where a group is joined. Octanoyl = CCCCCCCC(=O)*

Experiments:
Solubility in water = assay type: physicochemical; conditions: for solubility: water
Description: Solubility in water: 0.7 mg/ml

circulating GH = test: Circulating GH in 10-day old rats after subcutaneous injection; assay type: in vivo; conditions: 300 mg/kg, circulating GH at 15 minutes
Description: The peptide was injected subcutaneously in 10-day old rats at a dose of 300 mg/kg along with a solvent control and Ghrelin, and the circulating GH determined at 15 minutes, as described in R. Deghenghi et al., Life Sciences 54, 1321-1328 (1994). The results were as follows: The peptide was administered to rats as described above in Example 1. […]

For `CCCCCCCC(=O)OC[C@H](NC(=O)[C@H](CO)NC(=O)CN)C(=O)N[C@@H](Cc1ccccc1)C(=O)N[C@@H](CC(C)C)C(=O)N[C@@H](CO)C(=O)N1CCC[C@H]1C(=O)N[C@@H](CCC(=O)O)C(=O)O` [Peptide of Example 1, Gly-Ser-Ser(Octanoyl)-Phe-Leu-Ser-Pro-Glu], which solubility (Solubility in water) is on record?
Its solubility is 700 µg/mL (≈ 738 µM).

For `CCCCCCCC(=O)OC[C@H](NC(=O)[C@H](CO)NC(=O)CN)C(=O)N[C@@H](Cc1ccccc1)C(=O)N[C@@H](CC(C)C)C(=O)N[C@@H](CO)C(=O)N1CCC[C@H]1C(=O)N[C@@H](CCC(=O)O)C(=O)N[C@@H](C)C(=O)N[C@@H](CCCCN)C(=O)N[C@@H](CC(C)C)C(=O)N[C@@H](CCC(N)=O)C(=O)N1CCC[C@H]1C(=O)N[C@@H](CCCNC(=N)N)C(=O)O` [Peptide of Example 2, Gly-Ser-Ser(Octanoyl)-Phe-Leu-Ser-Pro-Glu-Ala-Lys-Leu-Gln-Pro-Arg] (H-GSS(Octanoyl)FLSPEAKLQPR-OH), which GH (circulating GH) is on record?
Its GH is 7.00 ± 3.5 ng/mL.

And the solubility (Solubility in water)?
Its solubility is 900 µg/mL (≈ 548 µM).

Which Solubility in water (Solubility in water) does the source give for `CCCCCCCC(=O)OC[C@H](NC(=O)[C@H](CO)NC(=O)CN)C(=O)N[C@@H](Cc1ccccc1)C(=O)O` [Peptide of Example 3, Gly-Ser-Ser(Octanoyl)-Phe] (H-GSS(Octanoyl)F-OH; N-terminus and C-terminus assumed) here?
The Solubility in water was “insoluble”.

Which GH (circulating GH) does the source give for “Ghrelin (human): peptide of 27 or 28 amino acids with an octanoyl ester on a serine residue; potent releaser of growth hormone (GSS(Octanoyl)FLSPEHQRVQQRKESKKPPAKLQPR; also: octanoyl ester on a serine residue; UniProt Q9UBU3 24-51, looked up)” here?
The GH was 139.80 ± 15.37 ng/mL and 140 ± 15 ng/mL and 139.8 ± 15.4 ng/mL.
